Measurements from patent publication US11332459B2 (TEIJIN PHARMA LIMITED, priority 2017, dated 2022).

Target: T1, human TRPC6 (Homo sapiens, UniProt Q9Y210)
T1 construct: expressed in transfected cells
T1 sequence (Q9Y210 1-931): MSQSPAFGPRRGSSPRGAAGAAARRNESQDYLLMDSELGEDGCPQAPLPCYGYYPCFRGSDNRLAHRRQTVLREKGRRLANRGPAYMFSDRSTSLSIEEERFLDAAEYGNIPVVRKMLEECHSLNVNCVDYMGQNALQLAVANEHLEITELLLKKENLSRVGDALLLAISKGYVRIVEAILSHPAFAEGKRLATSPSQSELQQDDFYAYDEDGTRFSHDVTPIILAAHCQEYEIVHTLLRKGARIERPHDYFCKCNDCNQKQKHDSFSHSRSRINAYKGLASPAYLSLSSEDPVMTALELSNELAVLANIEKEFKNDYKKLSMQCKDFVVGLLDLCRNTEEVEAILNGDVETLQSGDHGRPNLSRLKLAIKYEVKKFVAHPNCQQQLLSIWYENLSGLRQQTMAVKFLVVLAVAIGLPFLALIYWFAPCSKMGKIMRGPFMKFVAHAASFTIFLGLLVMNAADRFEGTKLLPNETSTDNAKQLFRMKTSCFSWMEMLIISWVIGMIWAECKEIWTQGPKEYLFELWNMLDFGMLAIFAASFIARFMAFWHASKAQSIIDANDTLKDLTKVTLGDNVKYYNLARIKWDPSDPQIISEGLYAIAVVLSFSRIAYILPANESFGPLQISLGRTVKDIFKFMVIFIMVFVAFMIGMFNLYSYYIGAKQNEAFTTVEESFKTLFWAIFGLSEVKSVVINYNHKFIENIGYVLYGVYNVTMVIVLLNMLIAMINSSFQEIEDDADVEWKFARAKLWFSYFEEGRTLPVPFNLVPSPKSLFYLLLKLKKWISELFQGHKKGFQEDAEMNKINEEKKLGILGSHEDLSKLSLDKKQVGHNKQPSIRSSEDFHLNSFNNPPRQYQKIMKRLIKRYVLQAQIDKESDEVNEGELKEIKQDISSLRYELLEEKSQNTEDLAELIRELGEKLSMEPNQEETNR
Assay: TRPC6 calcium flux assay (FLIPR, OAG-stimulated calcium influx)
Format: cell-based
Details: HEK293 cells stably transfected with human TRPC6, read-out: hTRPC6 Potency
Method in brief: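 HEK293 cells stably expressing human TRPC6, loaded with calcium dye 90–120 min at RT, then given compound for 25 min before OAG (50 uM final, 0.5% DMSO) in HEPES buffer pH 7.2 with 2 mM CaCl2. Background-subtracted FLIPR peak over 180 s normalized to OAG vs buffer; IC50 from dose plot.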

SMILES	IC50
N#Cc1ccc(Cn2c(N3CCC(F)(F)[C@H](N)C3)nc3ccc(Cl)cc32)nc1 [Example 12, (R)-6-((2-(3-amino-4,4-difluoropiperidin-1-yl)-6-chloro-1H-benzo[d]imidazol-1-yl)methyl)nicotinonitrile]	0.285 nM
N[C@H]1CCCN(c2nc3ccccc3n2Cc2ccc(F)cc2)C1 [Example 368, (S)-1-(1-(4-fluorobenzyl)-1H-benzo[d]imidazol-2-yl)piperidin-3-amine]	99.2 nM
N#Cc1ccc(Cn2c(N3CCC[C@H](N)C3)nc3c(Cl)cc(Cl)cc32)nc1 [Example 57, (S)-6-((2-(3-aminopiperidin-1-yl)-4,6-dichloro-1H-benzo[d]imidazol-1-yl)methyl)nicotinonitrile]	0.784 nM
CCNC(=O)Cn1c(N2CC[C@@H](F)[C@H](N)C2)nc2cc(F)c(F)cc21 [Example 282, 2-(2-((3R,4R)-3-amino-4-fluoro-1-piperidinyl)-5,6-difluoro-1H-benzimidazol-1-yl)-N-ethylacetamide]	150 nM
N[C@H]1CCCN(c2nc3ccccc3n2Cc2ccc(Cl)cn2)C1 [Example 209, (S)-1-(1-((5-chloropyridin-2-yl)methyl)-1H-benzo[d]imidazol-2-yl)piperidin-3-amine]	3.87 nM
N#Cc1ccc(Cn2c(N3CC[C@@H](F)[C@H](N)C3)nc3cc(C(F)(F)F)ccc32)nc1 [Example 15, 6-((2-((3R,4R)-3-amino-4-fluoropiperidin-1-yl)-5-(trifluoromethyl)-1H-benzo[d]imidazol-1-yl)methyl)nicotinonitrile]	4.39 nM
NC(=O)c1cnc(Cn2c(N3CC[C@H](F)[C@H](N)C3)nc3cc(C(F)(F)F)ccc32)cn1 [Example 123, 5-((2-((3R,4S)-3-amino-4-fluoro-1-piperidinyl)-5-(trifluoromethyl)-1H-benzimidazol-1-yl)methyl)-2-pyrazinecarboxamide]	252 nM
N#Cc1ccc(Cn2c(N3CC[C@@H](F)[C@H](N)C3)nc3ccc(OC(F)F)cc32)nc1 [Example 118, 6-((2-((3R,4R)-3-amino-4-fluoro-1-piperidinyl)-6-(difluoromethoxy)-1H-benzimidazol-1-yl)methyl)-3-pyridinecarbonitrile]	0.855 nM
N#Cc1ccc2c(c1)nc(N1CCC(F)(F)[C@H](N)C1)n2Cc1ncc(Cl)cn1 [Example 42, (R)-2-(3-amino-4,4-difluoropiperidin-1-yl)-1-((5-chloropyrimidin-2-yl)methyl)-1H-benzo[d]imidazole-5-carbonitrile]	1940 nM
N#Cc1cnc(Cn2c(N3CCC(F)(F)[C@H](N)C3)nc3ccc(Cl)cc32)cn1 [Example 233, (R)-5-((2-(3-amino-4,4-difluoropiperidin-1-yl)-6-chloro-1H-benzo[d]imidazol-1-yl)methyl)pyrazine-2-carbonitrile]	1.47 nM
N#Cc1ccc(Cn2c(N3C[C@@H]4C[C@]4(CN)C3)nc3ccccc32)cc1 [Example 183, 4-((2-((1S,5R)-1-(aminomethyl)-3-azabicyclo[3.1.0]hexan-3-yl)-1H-benzo[d]imidazol-1-yl)methyl)benzonitrile]	655 nM

Next, values leading:

IC50	SMILES
1120 nM	C[C@H](CC#N)NC(=O)Cn1c(N2CC[C@@H](F)[C@H](N)C2)nc2ccc(F)cc21 [Example 670, 2-(2-((3R,4R)-3-amino-4-fluoropiperidin-1-yl)-6-fluoro-1H-benzo[d]imidazol-1-yl)-N-((R)-1-cyanopropan-2-yl)acetamide]
809 nM	N[C@@H]1CN(c2nc3cc(F)c(F)cc3n2CC(=O)N2CCC(O)CC2)CC[C@H]1F [Example 640, 2-(2-((3R,4R)-3-amino-4-fluoropiperidin-1-yl)-5,6-difluoro-1H-benzo[d]imidazol-1-yl)-1-(4-hydroxypiperidin-1-yl)ethanone]
> 3750 nM	CC1CCCN(C(=O)C2CCN(C(=O)Cn3c(N4CC[C@@H](F)[C@H](N)C4)nc4cc(F)c(F)cc43)CC2)C1 (stereo partly drawn) [Example 539, 2-(2-((3R,4R)-3-amino-4-fluoropiperidin-1-yl)-5,6-difluoro-1H-benzo[d]imidazol-1-yl)-1-(4-(3-methylpiperidine-1-carbonyl)piperidin-1-yl)ethan-1-one]
410 nM	N[C@@H]1CN(c2nc3cc(F)c(F)cc3n2[C@H]2CCN(C3CC3)C2=O)CC[C@H]1F [Example 549, (S)-3-(2-((3R,4R)-3-amino-4-fluoropiperidin-1-yl)-5,6-difluoro-1H-benzo[d]imidazol-1-yl)-1-cyclopropylpyrrolidin-2-one]
29.2 nM	Cc1cc(Cn2c(N3CC[C@@H](F)[C@H](N)C3)nc3cc(F)c(F)cc32)no1 [Example 564, (3R,4R)-1-(5,6-difluoro-1-((5-methylisoxazol-3-yl)methyl)-1H-benzo[d]imidazol-2-yl)-4-fluoropiperidin-3-amine]
1440 nM	Cc1nnc(Cn2c(N3CC[C@@H](F)[C@H](N)C3)nc3cc(F)cnc32)s1 [Example 590, (3R,4R)-4-fluoro-1-(6-fluoro-3-((5-methyl-1,3,4-thiadiazol-2-yl)methyl)-3H-imidazo[4,5-b]pyridin-2-yl)piperidin-3-amine]
747 nM	Cc1nnc(Cn2c(N3CC[C@@H](F)[C@H](N)C3)nc3cc(F)c(F)cc32)n1C [Example 586, (3R,4R)-1-(1-((4,5-dimethyl-4H-1,2,4-triazol-3-yl)methyl)-5,6-difluoro-1H-benzo[d]imidazol-2-yl)-4-fluoropiperidin-3-amine]
158 nM	CC1(C#N)CCN(C(=O)Cn2c(N3CC[C@@H](F)[C@H](N)C3)nc3cc(F)c(F)cc32)CC1 [Example 629, 1-(2-(2-((3R,4R)-3-amino-4-fluoropiperidin-1-yl)-5,6-difluoro-1H-benzo[d]imidazol-1-yl)acetyl)-4-methylpiperidine-4-carbonitrile]
> 3750 nM	CO[C@@H]1CCN(c2nc3ccc(F)cc3n2CC(=O)N(C)CC(F)(F)F)C[C@H]1N [Example 485, 2-(2-((3R,4R)-3-amino-4-methoxypiperidin-1-yl)-6-fluoro-1H-benzo[d]imidazol-1-yl)-N-methyl-N-(2,2,2-trifluoroethyl)acetamide]
0.54 nM	N#Cc1ccc(Cn2c(N3CCC[C@H](N)C3)nc3ccc(Cl)cc32)cc1 [Example 421, (S)-4-((2-(3-aminopiperidin-1-yl)-6-chloro-1H-benzo[d]imidazol-1-yl)methyl)benzonitrile]
988 nM	N[C@@H]1CN(c2nc3cc(F)c(F)cc3n2CC(=O)N2CCC3CCCCC3C2)CC[C@H]1F (mixture of isomers) [Example 523, 2-(2-((3R,4R)-3-amino-4-fluoropiperidin-1-yl)-5,6-difluoro-1H-benzo[d]imidazol-1-yl)-1-(octahydroisoquinolin-2(1H)-yl)ethan-1-one]
> 3750 nM	N#CCCN(C(=O)Cn1c(N2CC[C@@H](F)[C@H](N)C2)nc2cc(F)c(F)cc21)C1CCOCC1 [Example 656]
> 3750 nM	COc1cc(F)cc2nc(N3CC[C@@H](F)[C@H](N)C3)n(CC(=O)N(C)CC(F)(F)F)c12 [Example 544, 2-(2-((3R,4R)-3-amino-4-fluoropiperidin-1-yl)-5-fluoro-7-methoxy-1H-benzo[d]imidazol-1-yl)-N-methyl-N-(2,2,2-trifluoroethyl)acetamide]
18200 nM	COc1cc(C#N)ccc1Cn1c(N2CCC[C@@H](N)C2)nc2ccccc21 [Example 396, (R)-4-((2-(3-aminopiperidin-1-yl)-1H-benzo[d]imidazol-1-yl)methyl)-3-methoxybenzonitrile]
